Reference: patent US9868746B2, “Substituted 5-aminothieno[2,3-C]pyridazine-6-carboxamide analogs as positive allosteric modulators of the muscarinic acetylcholine receptor M4” (Vanderbilt University, priority 2012, dated 2018)

Target: T1, mAChR M4 (Homo sapiens, UniProt P08173)
T1 construct: expressed in transfected cells; host or cells: CHO-K1 cells stably transfected with M4 cDNA and chimeric G-protein Gqi5
T1 sequence (P08173 1-479): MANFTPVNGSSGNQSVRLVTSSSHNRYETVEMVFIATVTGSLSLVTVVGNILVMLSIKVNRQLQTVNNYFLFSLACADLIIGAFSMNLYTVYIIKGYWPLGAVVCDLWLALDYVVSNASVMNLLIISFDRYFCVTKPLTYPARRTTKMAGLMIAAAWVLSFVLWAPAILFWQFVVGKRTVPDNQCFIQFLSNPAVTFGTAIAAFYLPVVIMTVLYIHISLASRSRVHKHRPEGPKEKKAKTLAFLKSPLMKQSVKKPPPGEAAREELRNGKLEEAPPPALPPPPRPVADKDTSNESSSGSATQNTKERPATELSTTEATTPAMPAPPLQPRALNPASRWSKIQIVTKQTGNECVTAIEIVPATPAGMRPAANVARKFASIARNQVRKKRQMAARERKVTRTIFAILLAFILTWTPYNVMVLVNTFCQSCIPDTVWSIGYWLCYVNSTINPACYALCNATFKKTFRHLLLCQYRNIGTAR
Assay: mAChR M4 cell-based functional assay (calcium mobilization, potentiation of EC20 acetylcholine response)
Conditions: for Emax at 30 µM: % ACh maximum at 30 μM; for EC50: mAChR M4 cell-based functional assay, >10,000 estimated for low potency compounds without plateau, read-out: EC50

Emax at 30 µM [%] | EC50 [nM] | SMILES
40 | 820 | Cc1nnc2sc(C(=O)N3CC(S(=O)(=O)c4ccc(F)cc4F)C3)c(N)c2c1C [Example B432]
34 | 590 | COc1cccc(S(=O)(=O)C2CN(C(=O)c3sc4nnc(C)c(C)c4c3N)C2)c1 [Example B433]
48 | 1100 | Cc1nnc2sc(C(=O)N3CC4CN(c5ncccn5)CC4C3)c(N)c2c1C (stereo not shown) [Example B434]
68 | 180 | Cc1nnc2sc(C(=O)NCc3ccc(F)cc3)c(N)c2c1C [Example B435]
49 | 980 | Cc1nnc2sc(C(=O)N3CC4CN(c5ccc(C#N)nc5)CC4C3)c(N)c2c1C (stereo not shown) [Example B436]
54 | 98 | Cc1nnc2sc(C(=O)N3CC4CN(c5cccc(Br)n5)CC4C3)c(N)c2c1C (stereo not shown) [Example B437]
45 | 170 | Cc1nnc2sc(C(=O)N3CC4CN(c5ccc(C#N)cn5)CC4C3)c(N)c2c1C (stereo not shown) [Example B438]
78 | 25 | COc1ncc(CNC(=O)c2sc3nnc(C)c(C)c3c2N)cc1F [Example B439]
80 | 190 | Cc1nnc2sc(C(=O)NCc3ccc(F)nc3)c(N)c2c1C [Example B440]
79 | 80 | Cc1nnc2sc(C(=O)NCc3ccc(CN4CCOCC4)cc3)c(N)c2c1C [Example B441]
66 | 310 | Cc1nnc2sc(C(=O)N3CC4CN(c5cccc(F)n5)CC4C3)c(N)c2c1C (stereo not shown) [Example B442]
69 | 120 | Cc1nnc2sc(C(=O)NCc3ccc(C(F)(F)F)nc3)c(N)c2c1C [Example B443]
65 | > 10000 | Cc1nnc2sc(C(=O)NCc3ccc(=O)n(C)c3)c(N)c2c1C [Example B444]
31 | > 10000 | Cc1nnc2sc(C(=O)N3CCCn4nccc43)c(N)c2c1C [Example B445]
59 | 17 | COc1ccc(CNC(=O)c2sc3nnc(C)c(C)c3c2N)cc1Cl [Example B446]
64 | > 10000 | Cc1nnc2sc(C(=O)NCc3ccc(-c4cnn(C)c4)cc3)c(N)c2c1C [Example B447]
75 | 18 | Cc1nnc2sc(C(=O)NCc3ccc(Br)cc3)c(N)c2c1C [Example B448, 5-amino-N-(4-bromobenzyl)-3,4-dimethylthieno[2,3-c]pyridazine-6-carboxamide]
71 | 69 | Cc1nnc2sc(C(=O)NCc3ccc(N(C)C)cc3)c(N)c2c1C [Example B449]
65 | 65 | Cc1nnc2sc(C(=O)NCc3ccc(S(=O)(=O)N(C)C)cc3)c(N)c2c1C [Example B450]
66 | 340 | Cc1nnc2sc(C(=O)NCc3ccc(C#N)c(F)c3)c(N)c2c1C [Example B451]
59 | 240 | Cc1nnc2sc(C(=O)NCc3ccnc(F)c3)c(N)c2c1C [Example B452]
74 | 240 | Cc1nnc2sc(C(=O)NCc3ccc(-c4cccc5cccnc45)cc3)c(N)c2c1C [Example B453]
66 | 19 | Cc1nnc2sc(C(=O)NCc3ccc(-c4cccnc4F)cc3)c(N)c2c1C [Example B454]
64 | 27 | Cc1nnc2sc(C(=O)NCc3ccc(-c4cc(F)nc(F)c4)cc3)c(N)c2c1C [Example B455]
68 | 99 | COc1ncccc1-c1ccc(CNC(=O)c2sc3nnc(C)c(C)c3c2N)cc1 [Example B456]

Emax at 30 µM [%] | EC50 [nM] | SMILES
75 | 19 | Cc1nnc2sc(C(=O)NCc3ccc(-c4ccncc4)cc3)c(N)c2c1C [Example B457]
82 | 32 | Cc1cc(-c2ccc(CNC(=O)c3sc4nnc(C)c(C)c4c3N)cc2)cnc1Cl [Example B458]
88 | 15 | Cc1nnc2sc(C(=O)NCc3ccc(-c4ccc(F)nc4)cc3)c(N)c2c1C [Example B459]
76 | 28 | Cc1nnc2sc(C(=O)NCc3ccc(-c4cccs4)cc3)c(N)c2c1C [Example B460]
84 | 23 | Cc1nnc2sc(C(=O)NCc3ccc(-c4ccnc(F)c4)cc3)c(N)c2c1C [Example B461]
65 | 38 | Cc1nnc2sc(C(=O)NCc3ccc(-c4cncnc4)cc3)c(N)c2c1C [Example B462]
70 | 150 | Cc1nnc2sc(C(=O)NCc3ccc(-c4ccc5occc5c4)cc3)c(N)c2c1C [Example B463]
63 | 11 | Cc1nnc2sc(C(=O)NCc3ccc(-c4cccnc4)cc3)c(N)c2c1C [Example B464]
61 | 15 | Cc1nnc2sc(C(=O)NCc3ccc([S+]([O-])C(F)F)c(F)c3)c(N)c2c1C (stereo not shown) [Example B465]
60 | 1200 | Cc1nnc2sc(C(=O)NCc3ccn(C)c(=O)c3)c(N)c2c1C [Example B466]
69 | 1200 | Cc1nnc2sc(C(=O)NCc3ccnc(C#N)c3)c(N)c2c1C [Example B467]
85 | 16 | Cc1nnc2sc(C(=O)NCc3ccc(S(=O)(=O)C(F)F)c(F)c3)c(N)c2c1C [Example B468]
64 | 430 | Cc1nnc2sc(C(=O)NCc3cccc(-c4ccccc4)c3)c(N)c2c1C [Example B469]
48 | 510 | Cc1ccc(CNC(=O)c2sc3nnc(C)c(C)c3c2N)nc1 [Example B470]
60 | 390 | Cc1nnc2sc(C(=O)NCc3ccc(Br)cn3)c(N)c2c1C [Example B471]
64 | 230 | Cc1nnc2sc(C(=O)NCc3ccc(-c4ccccc4)cc3)c(N)c2c1C [Example B472]
61 | 89 | Cc1nnc2sc(C(=O)NCc3ccc(-c4ccc5[nH]ncc5c4C)cc3)c(N)c2c1C [Example B473]
82 | 460 | Cc1nnc2sc(C(=O)NCc3ccc(-c4cc(C)c5[nH]ncc5c4)cc3)c(N)c2c1C [Example B474]
61 | 24 | COc1ccc(CNC(=O)c2sc3nnc(C)c(C)c3c2N)c(F)c1 [Example B475]
66 | 1600 | Cc1nnc2sc(C(=O)NCc3ccc([S+]([O-])C(F)(F)F)cc3)c(N)c2c1C (stereo not shown) [Example B476]
74 | 23 | [2H]C([2H])(NC(=O)c1sc2nnc(C)c(C)c2c1N)c1ccc(S(=O)(=O)C(F)F)cc1 [Example B477]
71 | 23 | Cc1nnc2sc(C(=O)NCc3ccc([S+]([O-])C(F)F)cc3)c(N)c2c1C (stereo not shown) [Example B478]
67 | 12 | Cc1nnc2sc(C(=O)NC3CN(c4cccnc4)C3)c(N)c2c1C [Example B479]
74 | > 10000 | Cc1nnc2sc(C(=O)NCc3ccc(OC(F)F)cn3)c(N)c2c1C [Example B480]
62 | 12 | Cc1nnc2sc(C(=O)NC3CN(c4ccccc4)C3)c(N)c2c1C [Example B481]
